Test results: PubChem BioAssay AID292 (DTP/NCI, 2004)
“And” between values parts separate entries of the source, which are not always exact repeats. Equal entries are not always repeated. Toxic doses and inconclusive results are not listed. Rule for the calls: active = survival T/C of 150% or more; inactive = T/C below 125% in these data.

Tested on: B6C3F1 mice, ip Sarcoma M5076, median survival T/C
Experiment: NCI In Vivo Anticancer Drug Screen. Data for tumor model Sarcoma M5076 (intraperitoneal) in B6C3F1 mice
Details: endpoint: median survival time, higher = longer survival
Procedure, shortened: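 The readout is a ratio of survival in drug-treated animals to survival in animals given vehicle alone, taken in mice bearing a transplanted tumour line.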

[1] = dose: 37.5 mg/kg/injection, schedule: Q04DX004 (ip), vehicle: saline with Tween-80
[2] = dose: 75.0 mg/kg/injection, schedule: Q04DX004 (ip), vehicle: saline with Tween-80
[3] = dose: 25.0 mg/kg/injection, schedule: Q04DX004 (ip), vehicle: saline with Tween-80
[4] = dose: 50.0 mg/kg/injection, schedule: Q04DX004 (ip), vehicle: saline with Tween-80
[5] = dose: 100.0 mg/kg/injection, schedule: Q04DX004 (ip), vehicle: saline with Tween-80
[6] = dose: 200.0 mg/kg/injection, schedule: Q04DX004 (ip), vehicle: saline with Tween-80
[7] = dose: 25.0 mg/kg/injection, schedule: Q04DX004 (ip), vehicle: Klucel (hydroxypropylcellulose) (HPC)
[8] = dose: 50.0 mg/kg/injection, schedule: Q04DX004 (ip), vehicle: Klucel (hydroxypropylcellulose) (HPC)
[9] = dose: 100.0 mg/kg/injection, schedule: Q04DX004 (ip), vehicle: Klucel (hydroxypropylcellulose) (HPC)
[10] = dose: 200.0 mg/kg/injection, schedule: Q04DX004 (ip), vehicle: Klucel (hydroxypropylcellulose) (HPC)
[11] = dose: 400.0 mg/kg/injection, schedule: Q04DX004 (ip), vehicle: Klucel (hydroxypropylcellulose) (HPC)
[12] = dose: 150.0 mg/kg/injection, schedule: Q04DX004 (ip), vehicle: saline with Tween-80

Measured: T/C

Oc1ccc(/C=N/Nc2nnc(N/N=C/c3ccc(O)cc3O)c3ccccc23)c(O)c1
inactive: dose: 6.25 mg/kg/injection, schedule: Q04DX004 (ip), vehicle: suspension in saline 108 % of control | dose: 12.5 mg/kg/injection, schedule: Q04DX004 (ip), vehicle: suspension in saline 109 % of control | dose: 25.0 mg/kg/injection, schedule: Q04DX004 (ip), vehicle: suspension in saline 109 % of control | dose: 50.0 mg/kg/injection, schedule: Q04DX004 (ip), vehicle: suspension in saline 109 % of control | dose: 100.0 mg/kg/injection, schedule: Q04DX004 (ip), vehicle: suspension in saline 119 % of control

O=[N+]([O-])c1ccc(/C=C/C=C/C=C/C=C/c2ccc(S(=O)(=O)F)cc2Cl)c(Cl)c1
inactive: dose: 18.75 mg/kg/injection, schedule: Q04DX004 (ip), vehicle: saline with Tween-80 95 % of control | [1] 96 % of control | [2] 98 % of control

CC(C)(C)c1noc2c1C(=O)c1ccccc1-2
inactive: [3] 102 % of control | [4] 105 % of control | [5] 100 % of control | [6] 90 % of control

O=C1NCC(Br)C(=O)N1 (stereo not drawn)
inactive: dose: 50.0 mg/kg/injection, schedule: Q04DX004 (ip), vehicle: saline + Tween-80 + alcohol 95 % of control | dose: 100.0 mg/kg/injection, schedule: Q04DX004 (ip), vehicle: saline + Tween-80 + alcohol 97 % of control | dose: 200.0 mg/kg/injection, schedule: Q04DX004 (ip), vehicle: saline + Tween-80 + alcohol 94 % of control | dose: 400.0 mg/kg/injection, schedule: Q04DX004 (ip), vehicle: saline + Tween-80 + alcohol 120 % of control

O=S(=O)(O)O
inactive: dose: 30.0 mg/kg/injection, schedule: Q01DX009 (ip), vehicle: water 103 % of control | dose: 44.0 mg/kg/injection, schedule: Q01DX009 (ip), vehicle: water 96 % of control

COc1cc2c(cc1OC)-c1c3c(cc4c1[C@@H](C2)N(C)CC4)OCO3
inactive: dose: 12.5 mg/kg/injection, schedule: Q04DX004 (ip), vehicle: distilled water + Tween-80 101 % of control | dose: 25.0 mg/kg/injection, schedule: Q04DX004 (ip), vehicle: distilled water + Tween-80 100 % of control | dose: 50.0 mg/kg/injection, schedule: Q04DX004 (ip), vehicle: distilled water + Tween-80 100 % of control | dose: 100.0 mg/kg/injection, schedule: Q04DX004 (ip), vehicle: distilled water + Tween-80 95 % of control

CCOC(=O)N(C)N=NC
inactive: dose: 1.3 mg/kg/injection, schedule: Q04DX004 (ip), vehicle: saline 110 % of control | dose: 2.16 mg/kg/injection, schedule: Q04DX004 (ip), vehicle: saline 119 % of control | dose: 3.6 mg/kg/injection, schedule: Q04DX004 (ip), vehicle: saline 122 % of control
active: dose: 10.0 mg/kg/injection, schedule: Q04DX004 (ip), vehicle: saline 155 % of control | dose: 30.0 mg/kg/injection, schedule: Q04DX004 (ip), vehicle: saline 158 % of control | dose: 60.0 mg/kg/injection, schedule: Q04DX004 (ip), vehicle: saline 168 % of control

O=C(Nc1ccccc1)C1C(=O)C(=O)N(c2ccccc2)C1=O (stereo not drawn)
inactive: [7] 99 % of control | [8] 90 % of control | [9] 92 % of control | [10] 95 % of control | [11] 95 % of control

COC1=C(C)C(=O)C2=C(C1=O)C(CO)N1C(C#N)C3CC4C(C1C2N1CCOC41)N3C (stereo not drawn)
inactive: dose: 0.12 mg/kg/injection, schedule: Q04DX004 (ip), vehicle: acid diluted with saline 97 % of control | dose: 0.25 mg/kg/injection, schedule: Q04DX004 (ip), vehicle: acid diluted with saline 103 % of control | dose: 0.5 mg/kg/injection, schedule: Q04DX004 (ip), vehicle: acid diluted with saline 100 % of control | dose: 1.0 mg/kg/injection, schedule: Q04DX004 (ip), vehicle: acid diluted with saline 90 % of control and 93 % of control | dose: 2.0 mg/kg/injection, schedule: Q04DX004 (ip), vehicle: acid diluted with saline 98 % of control and 109 % of control

CCOP(=S)(OCC)OC(=O)C(C)SSC (stereo not drawn) (tested in a mixture with another compound)
inactive: [1] 96 % of control | [2] 99 % of control | [12] 88 % of control

CN(C)N=Nc1ccc(C(=O)O)cc1
inactive: dose: 25.0 mg/kg/injection, schedule: Q04DX004 (ip), vehicle: saline 122 % of control
active: dose: 50.0 mg/kg/injection, schedule: Q04DX004 (ip), vehicle: saline 153 % of control and 159 % of control and 169 % of control | dose: 100.0 mg/kg/injection, schedule: Q04DX004 (ip), vehicle: saline 168 % of control and 178 % of control and 181 % of control

NC(C/[N+]([O-])=N/O)C(=O)O (stereo not drawn)
inactive: dose: 30.0 mg/kg/injection, schedule: Q04DX005 (ip), vehicle: alkali diluted with saline 93 % of control | dose: 120.0 mg/kg/injection, schedule: Q04DX005 (ip), vehicle: alkali diluted with saline 103 % of control | dose: 240.0 mg/kg/injection, schedule: Q04DX005 (ip), vehicle: alkali diluted with saline 118 % of control

CS(=O)CCN=Cc1ccc(N=Nc2ccc(O)cc2)cc1 (stereo not drawn)
inactive: dose: 37.0 mg/kg/injection, schedule: Q04DX004 (ip), vehicle: saline with Tween-80 109 % of control | [2] 90 % of control | [12] 87 % of control | dose: 600.0 mg/kg/injection, schedule: Q04DX004 (ip), vehicle: saline with Tween-80 87 % of control

CC(=O)C1C(=O)C(=O)N(c2cc(C)ccc2O)C1=O (stereo not drawn)
inactive: dose: 50.0 mg/kg/injection, schedule: Q04DX004 (ip), vehicle: Klucel + Tween-80 106 % of control | dose: 100.0 mg/kg/injection, schedule: Q04DX004 (ip), vehicle: Klucel + Tween-80 100 % of control

CCOC(=O)C(C(=O)OCC)=C(N)C(Cl)(Cl)Cl
inactive: [7] 107 % of control | [8] 103 % of control | [9] 101 % of control | [10] 103 % of control | [11] 96 % of control

O=C1c2ccccc2C(=O)c2c(NCCOCCO)ccc(NCCOCCO)c21
inactive: [3] 100 % of control | [4] 103 % of control | [5] 105 % of control | [6] 102 % of control | dose: 400.0 mg/kg/injection, schedule: Q04DX004 (ip), vehicle: saline with Tween-80 99 % of control

Cn1c(=O)ccc2c1nc1ccccc1[n+]2[O-]
inactive: dose: 12.5 mg/kg/injection, schedule: Q04DX004 (ip), vehicle: saline with Tween-80 98 % of control | [3] 99 % of control | [4] 103 % of control | [5] 99 % of control | [6] 94 % of control

Cc1nc2cc[nH]n2c(=O)c1CCc1ccccc1
inactive: [4] 107 % of control | [5] 94 % of control | [6] 96 % of control

CC(=O)NO
inactive: dose: 100.0 mg/kg/injection, schedule: Q04DX004 (ip), vehicle: water 97 % of control and 100 % of control and 105 % of control | dose: 200.0 mg/kg/injection, schedule: Q04DX004 (ip), vehicle: water 101 % of control and 103 % of control and 104 % of control | dose: 400.0 mg/kg/injection, schedule: Q04DX004 (ip), vehicle: water 107 % of control and 109 % of control | dose: 800.0 mg/kg/injection, schedule: Q04DX004 (ip), vehicle: water 106 % of control and 108 % of control | dose: 1600.0 mg/kg/injection, schedule: Q04DX004 (ip), vehicle: water 113 % of control and 115 % of control

O=C1CN(CO)C(=O)N1CO
inactive: [7] 100 % of control | [8] 104 % of control | [9] 97 % of control | [10] 114 % of control | [11] 114 % of control

O=S(CCCl)CCCl
inactive: dose: 6.25 mg/kg/injection, schedule: Q04DX004 (ip), vehicle: Klucel (hydroxypropylcellulose) (HPC) 102 % of control | dose: 12.5 mg/kg/injection, schedule: Q04DX004 (ip), vehicle: Klucel (hydroxypropylcellulose) (HPC) 98 % of control | [7] 98 % of control | [8] 106 % of control

Cc1cn(C2CC(F)C(CO)O2)c(=O)[nH]c1=O (stereo not drawn)
inactive: dose: 7.5 mg/kg/injection, schedule: Q04DX004 (ip), vehicle: suspension in saline 111 % of control | dose: 150.0 mg/kg/injection, schedule: Q04DX004 (ip), vehicle: suspension in saline 101 % of control | dose: 300.0 mg/kg/injection, schedule: Q04DX004 (ip), vehicle: suspension in saline 111 % of control | dose: 600.0 mg/kg/injection, schedule: Q04DX004 (ip), vehicle: suspension in saline 117 % of control

Cc1noc2nc(-c3ccccc3)cc(N3CCN(C)CC3)c12
inactive: dose: 25.0 mg/kg/injection, schedule: Q04DX004 (ip), vehicle: other 95 % of control | dose: 50.0 mg/kg/injection, schedule: Q04DX004 (ip), vehicle: other 105 % of control | dose: 100.0 mg/kg/injection, schedule: Q04DX004 (ip), vehicle: other 99 % of control | dose: 200.0 mg/kg/injection, schedule: Q04DX004 (ip), vehicle: other 97 % of control
